Results as given in paper PMC10174317, “^18F-labeled FGFR1 peptide: a new PET probe for subtype FGFR1 receptor imaging” (Frontiers in Oncology, 2023).
Where a SMILES comes first, the peptide text is derived from it. The star is where a group is joined. NOTA = O=C(O)CN1CCN(CC(=O)O)CCN(CC(=O)*)CC1; AEEA = NCCOCCOCC(=O)O

How the values were obtained:
[1] = In vivo radiochemical stability, urine of xenograft nude mice (RP-HPLC); details: urine of xenograft nude mice 60 min after injection of 7.4 MBq; one peak at 5.7 min; fluorine-18 at 4 min
Experimental: For the in vivo radiochemical stability experiment, urine samples were obtained from xenograft nude mice 60 min after injection of 150 µl (7.4 MBq, 2.53 GBq/μmol) [^18F]F-FGFR1 and analyzed by RP-HPLC.

[2] = In vitro stability in normal saline (RP-HPLC); format: physicochemical; details: 37°C, 1, 2, 4 and 6 h
Experimental: The in vitro and in vivo stability of [^18F]F-FGFR1 was evaluated by RP-HPLC analysis. […] The radiochemical purity of the final compounds was determined by RP-HPLC.

[3] = Micro-PET/CT biodistribution in A549 xenografts; format: in vivo, BALB/c nude mice; details: female, BALB/c nude, mouse, iv, total radioactivity, 11.1 MBq tail vein, micro-PET/CT ROI, mean ± SD; for tissue uptake at 0.5 h: 30 min post-injection; for tissue uptake at 1 h: 60 min post-injection; for tissue uptake at 2 h: 120 min post-injection
Experimental: (§1) All animal experiments were carried out in accordance with the Laboratory Animal Ethical Review of Animal Guidelines of China. BALB/c nude mice (sex, female; age, 4 weeks, body weight range, 19-21 g; China) were used for this study. Four cell lines (2*10^7 cells/nude mouse) were subcutaneously injected into the right forelimb to induce solid tumors. All xenograft nude mice were housed in laminar flow cabinets in a specific pathogen-free (SPF) environment and were provided ad libitum access to food and water at the Laboratory Animal Center of the Fourth Hospital of Hebei Medical University (China). The indication for micro-PET/CT imaging was xenografts with a tumor volume of 50-130 mm^3. All animal experiments strictly adhered to the Principles of the Laboratory Animal Ethical Committee of the Fourth Hospital Hebei Medical University (No. 2020016).
(§2) Xenograft mice (n=5) were fastly injected of 200 µl of [^18F]F-FGFR1 (11.1 MBq) through tail vein. For the in vivo blocking study, RT-112 (FGFR1-high expression) tumor-bearing mice (n = 5) were injected with a tracer that was mixed with 200-fold (1.58 mg) unlabeled peptide to saturate the receptors in the tumors. Mice were anesthetized via 3% isoflurane inhalation (RWD Life Science Inc. China) for induction and 2% isoflurane inhalation for maintenance. Micro-PET/CT imaging was performed on a micro-PET/SPECT/CT machine (NOVEL MEDICAL Equipment Ltd. China). Whole-body scans were performed 30, 60 and 120 min after tracer administration. The CT scanning parameters were 80 kV, 0.5 mA, 2000 ms/frames, and 360 frames; the images were reconstructed with a 512*512 matrix and a slice thickness of 0.18 mm. PET images were acquired with a 140*140 matrix and 10 min of total acquisition time. Reconstructed images were processed with the comprehensive image analysis software Pmod v4.201 (PMOD Technologies LLC. Switzerland). The biodistribution of the major organs (brain, heart, lung, liver, kidney, bone and muscle) and tumor were analyzed by manually outlining the regions of interest (ROIs) of the entire organs and tissue at each time point of the micro-PET/CT scan. The radioactivity accumulated in bone and muscle was measured in the limbs without xenograft tumors.

[4] = test system: RT-112, A549, SNU-16 and Calu-3 cells; test: Cellular internalization study; format: cell-based, human; details: acid wash with acetate buffer pH 2.5, four cell lines, P > 0.5, n = 6
Experimental: Internalization studies were performed according to the planned experiments. Thirty microliters (111 KBq, 1.81-2.53 GBq/μmol) of [^18F]F-FGFR1 was incubated with fresh medium in 24-well plates. The medium was discarded at predetermined time points, and the wells were rinsed twice with 1000 µl of PBS. Then, 1000 µl of acetate buffer (0.2 M acetic acid/0.5 M NaCl, pH 2.5) was added to the wells to remove surface-bound radioactivity. After removing the acetate buffer, the cells were washed twice with 1000 µl of PBS. The acetate buffer and PBS were collected and marked as Cs. The radioactivity of the collected cell lysate was measured and defined as Cin. The internalization rate was assessed in a similar method to the cell uptake rate calculation: Cin/(Cin + Cs).

[5] = Micro-PET/CT biodistribution in RT-112 xenografts; format: in vivo, BALB/c nude mice; details: female, BALB/c nude, mouse, iv, total radioactivity, 11.1 MBq tail vein, micro-PET/CT ROI, mean ± SD; for tissue uptake at 0.5 h: 30 min post-injection; for tissue uptake at 1 h: 60 min post-injection; for tissue uptake at 2 h: 120 min post-injection
Experimental: as §1, §2

[6] = Micro-PET/CT biodistribution in Calu-3 xenografts; format: in vivo, BALB/c nude mice; details: female, BALB/c nude, mouse, iv, total radioactivity, 11.1 MBq tail vein, micro-PET/CT ROI, mean ± SD; for tissue uptake at 0.5 h: 30 min post-injection; for tissue uptake at 1 h: 60 min post-injection; for tissue uptake at 2 h: 120 min post-injection
Experimental: as §1, §2

[7] = bone, n=5, read-out: Biodistribution, Bone
[8] = brain, n=5, read-out: Biodistribution, Brain
[9] = heart, n=5, read-out: Biodistribution, Heart
[10] = kidney, n=5, read-out: Biodistribution, Kidney
[11] = liver, n=5, read-out: Biodistribution, Liver
[12] = lung, n=5, read-out: Biodistribution, Lung
[13] = muscle, n=5, read-out: Biodistribution, Muscle
[14] = tumor, n=5, read-out: Biodistribution, Tumor

## CC(C)C[C@H](NC(=O)[C@H](CO)NC(=O)[C@H](CCCCN)NC(=O)[C@H](Cc1c[nH]c2ccccc12)NC(=O)[C@H](CCC(=O)O)NC(=O)[C@H](C)NC(=O)[C@H](CCCCN)NC(=O)COCCOCCNC(=O)CN1CCN(CC(=O)O)CCN(CC(=O)O)CC1)C(=O)NCC(=O)N[C@@H](CCC(=O)O)C(=O)N[C@@H](CCC(=O)O)C(=O)N[C@@H](C)C(=O)N[C@@H](Cc1c[nH]c2ccccc12)C(=O)N[C@@H](Cc1c[nH]cn1)C(=O)N[C@@H](CO)C(=O)N[C@@H](CCCCN)C(=O)O [[^18F]F-FGFR1] ({NOTA-AEEA}-KAEWKSLGEEAWHSK-OH; N-terminus and C-terminus assumed)
[1]
  In vivo radiochemical stability (RP-HPLC of urine): no peak corresponded to fluorine-18
[2]
  Radiochemical purity after incubation (in vitro stability): exceeded 90%
[3]; [7]
  tissue uptake at 0.5 h: 0.33 ± 0.1 %ID/g
  tissue uptake at 1 h: 0.35 ± 0.06 %ID/g
  tissue uptake at 2 h: 0.39 ± 0.02 %ID/g
[3]; [8]
  tissue uptake at 0.5 h: 0.61 ± 0.06 %ID/g
  tissue uptake at 1 h: 0.72 ± 0.13 %ID/g
  tissue uptake at 2 h: 0.64 ± 0.17 %ID/g
[3]; [9]
  tissue uptake at 0.5 h: 0.9 ± 0.09 %ID/g
  tissue uptake at 1 h: 0.88 ± 0.04 %ID/g
  tissue uptake at 2 h: 0.64 ± 0.07 %ID/g
[3]; [10]
  tissue uptake at 0.5 h: 9.35 ± 1.87 %ID/g
  tissue uptake at 1 h: 7.89 ± 1.06 %ID/g
  tissue uptake at 2 h: 4.46 ± 0.6 %ID/g
[3]; [11]
  tissue uptake at 0.5 h: 1.53 ± 0.11 %ID/g
  tissue uptake at 1 h: 1.52 ± 0.18 %ID/g
  tissue uptake at 2 h: 1.58 ± 0.08 %ID/g
[3]; [12]
  tissue uptake at 0.5 h: 0.69 ± 0.12 %ID/g
  tissue uptake at 1 h: 0.65 ± 0.04 %ID/g
  tissue uptake at 2 h: 0.53 ± 0.07 %ID/g
[3]; [13]
  tissue uptake at 0.5 h: 0.27 ± 0.03 %ID/g
  tissue uptake at 1 h: 0.27 ± 0.02 %ID/g
  tissue uptake at 2 h: 0.28 ± 0.02 %ID/g
[3]; [14]
  tissue uptake at 0.5 h: 0.87 ± 0.08 %ID/g
  tissue uptake at 1 h: 0.64 ± 0.08 %ID/g
  tissue uptake at 2 h: 0.53 ± 0.04 %ID/g
[4]
  Internalization fraction Cin/(Cin + Cs): not significantly different in the four cell lines
[5]; [7]
  tissue uptake at 0.5 h: 0.33 ± 0.1 %ID/g
  tissue uptake at 1 h: 0.35 ± 0.12 %ID/g
  tissue uptake at 2 h: 0.48 ± 0.23 %ID/g
[5]; [8]
  tissue uptake at 0.5 h: 0.66 ± 0.05 %ID/g
  tissue uptake at 1 h: 0.69 ± 0.03 %ID/g
  tissue uptake at 2 h: 0.03 ± 0.01 %ID/g
[5]; [9]
  tissue uptake at 0.5 h: 1.02 ± 0.11 %ID/g
  tissue uptake at 1 h: 0.75 ± 0.06 %ID/g
  tissue uptake at 2 h: 0.1 ± 0.03 %ID/g
[5]; [10]
  tissue uptake at 0.5 h: 9.44 ± 0.58 %ID/g
  tissue uptake at 1 h: 6.85 ± 0.77 %ID/g
  tissue uptake at 2 h: 19 ± 4.82 %ID/g
[5]; [11]
  tissue uptake at 0.5 h: 1.35 ± 0.23 %ID/g
  tissue uptake at 1 h: 1.43 ± 0.06 %ID/g
  tissue uptake at 2 h: 0.17 ± 0.08 %ID/g
[5]; [12]
  tissue uptake at 0.5 h: 0.75 ± 0.11 %ID/g
  tissue uptake at 1 h: 0.65 ± 0.09 %ID/g
  tissue uptake at 2 h: 0.14 ± 0.05 %ID/g
[5]; [13]
  tissue uptake at 0.5 h: 0.24 ± 0.05 %ID/g
  tissue uptake at 1 h: 0.28 ± 0.03 %ID/g
  tissue uptake at 2 h: 0.09 ± 0.02 %ID/g
[5]; [14]
  tissue uptake at 0.5 h: 3.84 ± 0.17 %ID/g
  tissue uptake at 1 h: 2.6 ± 0.1 %ID/g
  tissue uptake at 2 h: 1.35 ± 0.07 %ID/g
[6]; [7]
  tissue uptake at 0.5 h: 0.42 ± 0.05 %ID/g
  tissue uptake at 1 h: 0.36 ± 0.05 %ID/g
  tissue uptake at 2 h: 0.37 ± 0.04 %ID/g
[6]; [8]
  tissue uptake at 0.5 h: 0.6 ± 0.04 %ID/g
  tissue uptake at 1 h: 0.66 ± 0.06 %ID/g
  tissue uptake at 2 h: 0.67 ± 0.18 %ID/g
[6]; [9]
  tissue uptake at 0.5 h: 0.79 ± 0.08 %ID/g
  tissue uptake at 1 h: 0.8 ± 0.07 %ID/g
  tissue uptake at 2 h: 0.79 ± 0.17 %ID/g
[6]; [10]
  tissue uptake at 0.5 h: 8.47 ± 0.83 %ID/g
  tissue uptake at 1 h: 7.48 ± 0.6 %ID/g
  tissue uptake at 2 h: 3.02 ± 0.69 %ID/g
[6]; [11]
  tissue uptake at 0.5 h: 1.4 ± 0.07 %ID/g
  tissue uptake at 1 h: 1.54 ± 0.12 %ID/g
  tissue uptake at 2 h: 1.33 ± 0.17 %ID/g
[6]; [12]
  tissue uptake at 0.5 h: 0.62 ± 0.08 %ID/g
  tissue uptake at 1 h: 0.54 ± 0.06 %ID/g
  tissue uptake at 2 h: 0.48 ± 0.04 %ID/g
[6]; [13]
  tissue uptake at 0.5 h: 0.28 ± 0.04 %ID/g
  tissue uptake at 1 h: 0.25 ± 0.03 %ID/g
  tissue uptake at 2 h: 0.3 ± 0.04 %ID/g
[6]; [14]
  tissue uptake at 0.5 h: 0.59 ± 0.08 %ID/g
  tissue uptake at 1 h: 0.58 ± 0.06 %ID/g
  tissue uptake at 2 h: 0.43 ± 0.03 %ID/g
